Values quoted from earlier work in PubChem BioAssay AID1259410 (Chemical Carcinogenesis Research Information System (CCRIS), 2018).

Tested on: rodent tumor promotion studies, tumor incidence
Assay: CCRIS tumor promotion studies
[1] = Carcinogen: 7,12-DIMETHYLBENZ(A)ANTHRACENE, Doses [Carcinogen]: TOP, Route [Carcinogen]: DERMAL, Route [Promoter]: DERMAL, Species: MOUSE, Strain/Sex: FEMALE

Structure (SMILES): C=C1[C@@H](O)[C@@H]2O[C@]3(CC[C@H](/C=C/[C@@H](C)[C@@H]4CC(C)=C[C@@]5(O[C@H](C[C@@](C)(O)C(=O)O)CCC5O)O4)O3)CC[C@H]2O[C@@H]1[C@@H](O)C[C@H](C)[C@H]1O[C@@]2(CCCCO2)CC[C@H]1C (stereo partly specified)
- outcome (Carcinogen: 7,12-DIMETHYLBENZ[A]ANTHRACENE, 57-97-6, Doses [Carcinogen]: 100 UG IN 0.1 ML OF ACETONE ONCE, Doses [Promoter]: 0, 5 UG IN 0.1 ML OF ACETONE 2/WK FOR 30 WK BEGINNING 1 WK POST CARCINOGEN DOSE (STUDY DURATION: 31 WK), Route [Carcinogen]: DERMAL, Route [Promoter]: DERMAL, Species: MOUSE, Strain/Sex: CD-1/FEMALE): skin: tumor
- outcome (Carcinogen: N-METHYL-N'-NITRO-N-NITROSOGUANIDINE, 70-25-7, Doses [Carcinogen]: 100 MG/L OF DEIONIZED WATER AS DRINKING WATER FOR 8 WK, Doses [Promoter]: 0.25 MG/L IN DRINKING WATER BEGINNING 1 WK POST CARCINOGEN TREATMENT AND CONTINUING FOR 46 WK THEN 0.5 MG/L FOR 17 WK (S, Route [Carcinogen]: ORAL, Route [Promoter]: ORAL, Species: RAT, Strain/Sex: SPRAGUE-DAWLEY/MALE): glandular stomach: neoplasms

Structure (SMILES): O=[Se](O)O
- outcome (Carcinogen: N-METHYL-N'-NITRO-N-NITROSOGUANIDINE [70-25-7], Doses [Carcinogen]: 20 MG/KG BW DAILY FOR 10 D, Doses [Promoter]: 0, 2, 4 MG/L 1 WK BEFORE MNNG (STUDY DURATION: 43 WKS), Doses [Promoter]: 0, 2, 4 MG/L 1 WK BEFORE MNNG (STUDY DURATION: 43 WKS), Route [Carcinogen]: GAVAGE?, Route [Promoter]: DRINKING WATER, Species: RAT, Strain/Sex: WISTAR/MALE): stomach: gastric cancer
- outcome (Doses [Carcinogen]: 20 MG/KG/D FOR 10 D, Doses [Promoter]: 2, 4 MG/L WATER ONE WK BEFORE CARCINOGEN (STUDY DURATION: 43 WK), Route [Carcinogen]: GAVAGE, Route [Promoter]: DRINKING WATER, Species: RAT, Strain/Sex: WISTAR (15/GROUP)): stomach: gastric leiomyoma

Structure (SMILES): CN(C)C(=S)SSC(=S)N(C)C
- outcome (Carcinogen: 7,12-DIMETHYLBENZ[A]ANTHRACENE, 57-97-6, Doses [Carcinogen]: 52 UG IN 100 µL ACETONE ONCE, Doses [Promoter]: 0, 100 MG/KG BW IN 100 µL DMSO 3/WK FOR 51 WK BEGINNING 1 WK POST CARCINOGEN DOSE (STUDY DURATION: 52 WK), Route [Carcinogen]: DERMAL, Route [Promoter]: DERMAL, Species: MOUSE, Strain/Sex: SWISS/FEMALE): skin: tumor
- outcome (Carcinogen: 7,12-DIMETHYLBENZ[A]ANTHRACENE, 57-97-6, Doses [Carcinogen]: 52 UG IN 100 µL ACETONE ONCE, Doses [Promoter]: 0, 100 MG/KG BW IN 100 µL DMSO 3/WK FOR 51 WK BEGINNING 1 WK POST CARCINOGEN DOSE (STUDY DURATION: 52 WK), Route [Carcinogen]: DERMAL, Route [Promoter]: DERMAL, Species: MOUSE, Strain/Sex: SWISS/MALE): skin: tumor

Structure (SMILES): Cc1ccc(O)cc1C
- outcome [1]: integumentary system (skin)

Structure (SMILES): C#C[C@]1(O)CC[C@H]2[C@@H]3CCc4cc(OC)ccc4[C@H]3CC[C@@]21C
- outcome (Carcinogen: DIETHYLNITROSAMINE, 55-18-5, Doses [Carcinogen]: 20 MG/KG IN 0.85% SALINE ONCE PRECEDED 24 HR BY 2/3 PARTIAL HEPATECTOMY, Doses [Promoter]: 0, 0.1, 0.5 PPM IN DIET FOR 12 MO BEGINNING 24 HR POST CARCINOGEN (STUDY DURATION: 12 MO), Doses [Promoter]: 0, 0.1, 0.5 PPM IN DIET FOR 12 MO BEGINNING 24 HR POST CARCINOGEN (STUDY DURATION: 12 MO), Route [Carcinogen]: INTRAPERITONEAL, Route [Promoter]: ORAL, Species: RAT, Strain/Sex: CD-1/FEMALE): liver: hepatocellular carcinoma

Structure (SMILES): NC[C@@H]1O[C@H](O[C@H]2[C@@H](O)[C@H](O[C@@H]3[C@@H](O)[C@H](N)C[C@H](N)[C@H]3O[C@H]3O[C@H](CN)[C@@H](O)[C@H](O)[C@H]3N)O[C@@H]2CO)[C@H](N)[C@@H](O)[C@@H]1O
- outcome (Carcinogen: AZOXYMETHANE, 25843-45-2, Doses [Carcinogen]: 8 MG/KG 1/WK FOR 8 WK, Doses [Promoter]: 0, 100, 200 PPM IN DRINKING WATER BEGINNING 2 WK PRIOR TO CARCINOGEN TREATMENT AND CONTINUING FOR DURATION OF STUDY (STU, Doses [Promoter]: 0, 100, 200 PPM IN DRINKING WATER BEGINNING 2 WK PRIOR TO CARCINOGEN TREATMENT AND CONTINUING FOR DURATION OF STUDY (STU, Route [Carcinogen]: SUBCUTANEOUS, Route [Promoter]: ORAL, Species: RAT, Strain/Sex: F344/FEMALE): colon: adenocarcinoma

Structure (SMILES): O=NN(CCO)CCO
- outcome (Carcinogen: NITROSO(2-OXOPROPYL)AMINE, 60599-38-4, Doses [Carcinogen]: 12 MG/ML IN ETHYL ACETATE/CORN OIL (1:1) 2/WK FOR 2 WK, Doses [Promoter]: 0, 100 MG/L IN DRINKING WATER 5 D/WK FOR 40 WK BEGINNING 1/WK POST CARCINOGEN TREATMENT (STUDY DURATION: 43 WK), Route [Carcinogen]: GAVAGE, Route [Promoter]: ORAL, Species: RAT, Strain/Sex: F344/MALE): kidney: renal cell carcinoma

Structure (SMILES): Cc1cc(C)cc(O)c1
- outcome [1]: integumentary system (skin)
